This is an account of results in patent US20230107941A1, “HEPATITIS B CAPSID ASSEMBLY MODULATORS” (Venatorx Pharmaceuticals, Inc., priority 2019, published 2023).

Molecules are shown by their SMILES. Read-outs that look alike come from different tables or passages of the source.

The subject of one series is HBV. Nature of the series: In vitro antiviral assay: anti-HBV replication in HepAD38 cells (extracellular HBV DNA by QPCR). The format is cell-based, hepatitis B virus (genotype D, serotype ayw). The settings on record: Hepatitis B virus. As for the experimental part: The anti-HBV activity of the Capsid Assembly Modulators (CAMs) was evaluated in a cell based assay utilizing the human hepatoma cell line HepAD38 (Ladner, S K., et al., 1998). HepAD38 cells were derived from the parental line, HepG2, that were stably transfected with a construct containing an HBV genome (genotype D, serotype ayw) under the control of a tetracycline repressible CMV promoter. Upon removal of tetracycline, viral pre-genomic RNA (pgRNA) and mRNAs are expressed and infectious viral particles are assembled and secreted into the culture medium providing a reliable, robust system to measure multiple steps of the HBV life cycle. Disruption of capsid formation results in reduced levels of DNA-containing virus particles that are released into the culture supernatant. To quantify the effect of CAMs on HBV replication, we developed a sensitive QPCR-based assay that measures extracellular HBV DNA levels upon treatment of HepAD38 cells with various concentrations of test compounds.
HepAD38 cells were maintained in DMEM/F12 medium containing 10% FBS, 400 μg/mL G418 and 0.3 μg/mL tetracycline (tet+ media) to maintain repression of HBV replication. To evaluate each compound, HepAD38 cells were seeded into 24-well collagen coated culture plates (Corning BioCoat) at a density of 200,000 cells per well in 1 mL of medium without tetracycline (tet-media) and allowed to adhere overnight at 37° C., 5% CO2 in a humidified incubator. The following day, media was refreshed and a dose range of each compound was prepared by performing 1 log10 serial dilutions in 100% DMSO at 200× the desired assay concentration. Dilutions were then added to the cells resulting in a final dose range of 1 μM to 10 pM and the plates were returned to the incubator. Following 7 days of incubation, culture supernatants were harvested and HBV DNA levels were evaluated by QPCR and compared to the vehicle treated control wells (i.e. DMSO alone).
To quantify HBV DNA levels, cell culture supernatants were diluted 1:10 in sterile, nuclease-free water (Gibco). The diluted supernatants were subsequently added to a PCR master mix containing 1× Roche Light Cycler Master Mix, 0.5 μM forward primer, 0.5 μM reverse primer (Fwd: 5′-[…] (SEQ ID NO 1); Rev: 5′-[…] (SEQ ID NO 2)), 0.2 μM Roche Universal Probe Library Probe 25. The volume was brought to 20 μL with nuclease-free water and amplification of the HBV target sequence was performed using a Roche LightCycler 480 QPCR instrument. PCR extended out to 45 cycles with each cycle consisting of a denaturation step at 95° C. for 10 sec., followed by an annealing step at 60° C. for 10 sec. and a brief extension step at 72° C. for 1 sec.
Extracellular HBV DNA levels, expressed in copies/mL, were determined by comparison to a standard curve (10^2-10^9 copies/mL) using the Roche LightCycler analysis software. These values were subsequently converted to percent inhibition of HBV replication by dividing the HBV DNA levels in the experimental samples with those obtained from the vehicle control (˜1-2×10^5 copies/mL). Potency, expressed as an EC50 (the effective concentration required to inhibit 50% of HBV replication), was calculated from the dose-response curve using a 4-parameter non-linear regression analysis (GraphPad Prism). The nucleoside analog inhibitor entecavir was used as a positive control to validate each assay run. The EC50 value of entecavir in the HepAD38 assay was 0.5 nM, as previously reported in the literature.

Series [1] is described as follows: In vitro cytotoxicity assay (MTT cell viability) in HepG2 cells. The settings on record: human. Type of series: cell-based, human. How it is done:
To evaluate antiviral selectivity, the cytotoxic activity of each compound was determined using a standard cell viability assay performed on the parental HepG2 cell line. Cell viability was determined by measuring the conversion of 3-(4,5-dimethylthiazol-2-yl)-2,5-diphenyltetrazolium bromide (MTT) to the insoluble formazan salt crystal that occurs in live cells. Briefly, HepG2 cells were seeded in 96-well plates at a density of 20,000 cells per well in […] (complete growth medium) and allowed to adhere overnight in a 37° C., […] humidified incubator. The next day, test agents were prepared by performing 8 half-log10 serial dilutions in 100% DMSO at 200× the final desired concentration in the assay. Compounds were tested over a range of concentrations from 30 μM to 1.0 nM in the assay. HepG2 cells were incubated in the presence of various concentrations of CAMs for 7 days in a 37° C., […] humidified incubator. At the completion of the 7-day incubation period, MTT reagent was added to each well and the mixture was incubated for an additional 3-4 hours. At the completion of the incubation period, all wells were aspirated to remove the culture medium. The formazan crystals were solubilized from the cell monolayers with 100% DMSO. Plates were briefly mixed on an orbital shaker and absorbance was measured at 492 nm using a Perkin-Elmer EnVision multi-label plate reader. All absorbance values were converted to a percentage of the signal obtained from the vehicle treated controls. Absorbance values at 492 nm are directly proportional to the number of viable cells present in the sample. A CC50 value (cytotoxic concentration that results in loss of 50% cell viability) was calculated from the dose-response curve by 4-parameter, non-linear regression analysis using the GraphPad Prism software. The positive control compound, staurosporine, reduced the viability of HepG2 cells in a dose-dependent manner (CC50=100 nM).

Setting [2] is: HePAD38, 168 h, 7 days incubation, extracellular HBV DNA by QPCR, read-out: Anti-HBV EC50.

Take `CCc1c(C(=O)Nc2ccc(F)c(C)c2)c(C)n(C)c1C(=O)C(=O)N[C@H](C)C(F)(F)F` [Example 90, (R)-4-ethyl-N-(4-fluoro-3-methylphenyl)-1,2-dimethyl-5-(2-oxo-2-((1,1,1-trifluoropropan-2-yl)amino)acetyl)-1H-pyrrole-3-carboxamide]: the EC50 in the series with HBV (setting [2]) was < 50 nM. Moreover, the 50% cytotoxic concentration (CC50) at 7 days in series [1] was in the range of 5000 to 30000 nM. As for `Cc1cc(NC(=O)c2c(C)c(C(=O)C(=O)N[C@H]3CC[C@@H](S(C)(=O)=O)CC3)n(C)c2-c2ccsc2)ccc1F` [Example 182, N-(4-fluoro-3-methylphenyl)-1,4-dimethyl-5-(2-(((1s,4s)-4-(methylsulfonyl)cyclohexyl)amino)-2-oxoacetyl)-2-(thiophen-3-yl)-1H-pyrrole-3-carboxamide], the EC50 with HBV (setting [2]) is > 1000 nM. The CC50 at 7 days in series [1] is > 30000 nM.

With `Cc1cc(NC(=O)c2c(C)c(C(=O)C(=O)N[C@H]3CC[C@@H](O)CC3)n(C)c2CC2CC2)ccc1F` [Example 126, 2-(cyclopropylmethyl)-N-(4-fluoro-3-methylphenyl)-5-(2-(((1s,4s)-4-hydroxycyclohexyl)amino)-2-oxoacetyl)-1,4-dimethyl-1H-pyrrole-3-carboxamide], the EC50 in the series with HBV (setting [2]) was < 50 nM. For the same compound, the CC50 at 7 days in series [1] is > 30000 nM.

With `Cc1cc(NC(=O)c2c(C)c(C(=O)C(=O)N[C@H]3CC[C@@H](OCC(=O)O)CC3)n(C)c2C)ccc1F` [Example 144, 2-(((1s,4s)-4-(2-(4-((4-fluoro-3-methylphenyl)carbamoyl)-1,3,5-trimethyl-1H-pyrrol-2-yl)-2-oxoacetamido)cyclohexyl)oxy) acetic acid], the concentration giving a half-maximal response (EC50) with HBV (setting [2]) fell in the range of 50 to 499 nM. Further, the CC50 at 7 days in series [1] is > 30000 nM. On the same counts, the results for `Cc1c(C(=O)NCc2noc(C(F)(F)F)n2)c(C)n(C)c1C(=O)C(=O)NC(C)(C)C` [Example 58, 5-(2-(tert-butylamino)-2-oxoacetyl)-1,2,4-trimethyl-N-((5-(trifluoromethyl)-1,2,4-oxadiazol-3-yl)methyl)-1H-pyrrole-3-carboxamide] are > 1000 nM and > 30000 nM.

For `Cc1cc(NC(=O)c2c(C)c(C(=O)C(=O)N3CCOCC3)n(C)c2C)ccc1F` [Example 187, N-(4-fluoro-3-methylphenyl)-1,2,4-trimethyl-5-(2-morpholino-2-oxoacetyl)-1H-pyrrole-3-carboxamide], in the series with HBV (setting [2]), the EC50 lay in the range of 500 to 1000 nM. The CC50 at 7 days in series [1] is > 30000 nM.

For `Cc1cc(NC(=O)c2c(C)c(C(=O)C(=O)N[C@]3(C)C[C@H](O)C3)n(C)c2-c2cccnc2)ccc1F` [Example 150, N-(4-fluoro-3-methylphenyl)-5-(2-(((1s,3s)-3-hydroxy-1-methylcyclobutyl)amino)-2-oxoacetyl)-1,4-dimethyl-2-(pyridin-3-yl)-1H-pyrrole-3-carboxamide], the 50% effective concentration (EC50) in the series with HBV (setting [2]) is > 1000 nM. For the same compound, the CC50 at 7 days in series [1] is > 30000 nM. The like results for `Cc1c(C(=O)Nc2ccc(F)c(Br)c2)c(C)n(C)c1C(=O)C(=O)N[C@H]1CC[C@@H](O)CC1` [Example 19, N-(3-bromo-4-fluorophenyl)-5-(2-(((1s,4s)-4-hydroxycyclohexyl)amino)-2-oxoacetyl)-1,2,4-trimethyl-1H-pyrrole-3-carboxamide] were, in that order, < 50 nM and > 30000 nM. The like results for `Cc1c(C(=O)Nc2cccc(C#N)c2)c(C)n(C)c1C(=O)C(=O)N[C@]1(C)CC[C@@H](O)CC1` [Example 170, N-(3-cyanophenyl)-5-(2-(((1r,4r)-4-hydroxy-1-methylcyclohexyl)amino)-2-oxoacetyl)-1,2,4-trimethyl-1H-pyrrole-3-carboxamide] were, in that order, < 50 nM and > 30000 nM. Turning to `Cc1c(C(=O)Nc2cc(F)c(F)c(F)c2)c(C)n(C)c1C(=O)C(=O)N[C@]1(C)CC[C@@H](O)CC1` [Example 25, 5-(2-(((1r,4r)-4-hydroxy-1-methylcyclohexyl)amino)-2-oxoacetyl)-1,2,4-trimethyl-N-(3,4,5-trifluorophenyl)-1H-pyrrole-3-carboxamide], the concentration for a half-maximal effect (EC50) in the series on HBV (setting [2]) is < 50 nM. In series [1], the CC50 at 7 days was > 30000 nM.

As to `Cc1cc(NC(=O)c2c(C(C)C)c(C(=O)C(=O)N[C@]3(C)C[C@H](O)C3)n(C)c2C)ccc1F` [Example 93, N-(4-fluoro-3-methylphenyl)-5-(2-(((1s,3s)-3-hydroxy-1-methylcyclobutyl)amino)-2-oxoacetyl)-4-isopropyl-1,2-dimethyl-1H-pyrrole-3-carboxamide], in the series on HBV (setting [2]), the EC50 is > 1000 nM. In series [1], the 50% cytotoxic concentration (CC50) at 7 days was > 30000 nM. On the same counts, the results for `Cc1cc(NC(=O)c2c(C)c(C(=O)C(=O)Nc3ccncc3N3CCOCC3)n(C)c2C)ccc1F` [Example 54, N-(4-fluoro-3-methylphenyl)-1,2,4-trimethyl-5-(2-((3-morpholinopyridin-4-yl)amino)-2-oxoacetyl)-1H-pyrrole-3-carboxamide] are 500 to 1000 nM and > 30000 nM.

Take `CCc1c(C(=O)Nc2ccc(F)c(C)c2)c(C)n(C)c1C(=O)C(=O)N[C@H]1CC[C@@H](S(C)(=O)=O)CC1` [Example 89, 4-ethyl-N-(4-fluoro-3-methylphenyl)-1,2-dimethyl-5-(2-(((1s,4s)-4-(methylsulfonyl)cyclohexyl)amino)-2-oxoacetyl)-1H-pyrrole-3-carboxamide]: the EC50 in the series on HBV (setting [2]) is < 50 nM. Moreover, the CC50 at 7 days in series [1] was > 30000 nM. The like results for `CCc1c(C(=O)Nc2ccc(F)c(C)c2)c(C)n(C)c1C(=O)C(=O)NC1CCN(c2cccnn2)CC1` [Example 91, 4-ethyl-N-(4-fluoro-3-methylphenyl)-1,2-dimethyl-5-(2-oxo-2-((1-(pyridazin-3-yl)piperidin-4-yl)amino)acetyl)-1H-pyrrole-3-carboxamide] were, in that order, 50 to 499 nM and > 30000 nM. The like results for `Cc1cc(NC(=O)c2c(C)c(C(=O)C(=O)N[C@]3(C)CC[C@H](O)CC3)n(C)c2C(C)C)ccc1F` [Example 111, N-(4-fluoro-3-methylphenyl)-5-(2-(((1s,4s)-4-hydroxy-1-methylcyclohexyl)amino)-2-oxoacetyl)-2-isopropyl-1,4-dimethyl-1H-pyrrole-3-carboxamide] were, in that order, < 50 nM and > 30000 nM. Take `C=C1[C@H](CO)[C@@H](O)C[C@@H]1n1cnc2c(=O)[nH]c(N)nc21` [entecavir, reference compound]: the EC50 in the series on HBV (HePAD38, positive control, read-out: EC50 in the HepAD38 assay) came out at 0.5 nM. Consider `CN[C@@H]1C[C@H]2O[C@@](C)([C@@H]1OC)n1c3ccccc3c3c4c(c5c6ccccc6n2c5c31)C(=O)NC4` [staurosporine, reference compound], for which, in series [1] (positive control, HepG2 cells, MTT, read-out: CC50 (viability of HepG2 cells)), the CC50 at 7 days stood at 100 nM.

The term EC50 denotes the concentration at which the effect is half-maximal. The term CC50 denotes the concentration that lowers cell viability or growth by half.
